Assay results published in US10144742B2 (Millennium Pharmaceuticals, Inc., priority 2014, dated 2018).
Read-outs that look alike come from different tables or passages of the source.

Tests used:
[1] = target: hNAMPT protein (Homo sapiens (Human), UniProt P43490); test: NAMPT enzyme assay (TR-FRET/HTRF, BodiPY ligand, anti 6His-Tb); format: binding; conditions: for IC50: NAMPT IC50 range class, read-out: IC50; for inhibition at 1 µM: read-out: Percent Inhibition
How it was run: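 Compound or DMSO was incubated for 1 h at room temperature, protected from light, with BodiPY ligand and hNAMPT labelled by terbium anti-6His antibody. The 520 nm to 486 nm emission ratio after 320 nm excitation gave inhibition versus vehicle, from which concentration-response curves yielded IC50.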

[2] = system: PC3 cells; test: PC3 growth inhibition (Cell-titer glo, 72 hours); format: cell-based; conditions: Homo sapiens, PC-3, PC3 cells, 72 hours, Cell-titer glo, read-out: Percent Inhibition (PC3 growth inhibition); for inhibition at 1 µM: compound concentration 1 μM; for inhibition at 1.667 µM: compound concentration 1.667 μM
How it was run: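 Compounds in AIM serum-free medium were applied for 72 h at 37 °C, 5% CO2 to PC3 cells plated overnight from RPMI1640 culture. Luminescence after 10 min CellTiter-Glo, normalised to DMSO, gave % viability at 1 μM or 1.667 μM, or GI50/LD50.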

hNAMPT protein, sequence (P43490 whole entry): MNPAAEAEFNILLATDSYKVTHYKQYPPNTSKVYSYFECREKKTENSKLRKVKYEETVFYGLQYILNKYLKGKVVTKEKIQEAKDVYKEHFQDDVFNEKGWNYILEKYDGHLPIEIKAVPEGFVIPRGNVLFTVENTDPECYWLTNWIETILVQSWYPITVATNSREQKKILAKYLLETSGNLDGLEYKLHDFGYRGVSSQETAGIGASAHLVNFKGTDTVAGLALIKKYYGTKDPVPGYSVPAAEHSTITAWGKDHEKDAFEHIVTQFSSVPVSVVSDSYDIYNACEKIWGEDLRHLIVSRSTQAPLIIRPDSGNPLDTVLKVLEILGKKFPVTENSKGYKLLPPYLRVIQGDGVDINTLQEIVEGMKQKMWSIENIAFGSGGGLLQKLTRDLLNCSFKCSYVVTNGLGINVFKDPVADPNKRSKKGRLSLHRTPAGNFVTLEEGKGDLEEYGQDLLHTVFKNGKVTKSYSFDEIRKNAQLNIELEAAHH

In the case of `CN(CCn1ccnc1)C(=O)c1ccc2nc(-c3ccc(F)cc3)c(-c3ccc(F)cc3)nc2c1` [Compound I-279, 2,3-bis(4-fluorophenyl)-N-[2-(1H-imidazol-1-yl)ethyl]-N-methylquinoxaline-6-carboxamide], the IC50 [1] is reported as 2000 to 10000 nM, the inhibition at 1 µM ([1]; compound concentration 1 μM) is reported as 13% and the inhibition at 1 µM [2] is reported as 89%.

`O=C(NCCCn1ccnc1)c1ccc2nc(N3CCC(n4c(=O)[nH]c5ccccc54)CC3)c(-c3ccccc3)nc2c1` [Compound I-280, N-[3-(1H-imidazol-1-yl)propyl]-2-[4-(2-oxo-2,3-dihydro-1H-benzimidazol-1-yl)piperidin-1-yl]-3-phenylquinoxaline-6-carboxamide] showed an IC50 [1] of 100 to 500 nM, an inhibition at 1 µM ([1]; compound concentration 1 μM) of 83% and an inhibition at 1 µM [2] of -6%.

`O=C(NCCCn1ccnc1)c1ccc2nc(-c3ccccc3)c(-c3ccccc3Cl)nc2c1` [Compound I-281, 3-(2-chlorophenyl)-N-[3-(1H-imidazol-1-yl)propyl]-2-phenylquinoxaline-6-carboxamide] gave an IC50 [1] of 1000 to 2000 nM, an inhibition at 1 µM ([1]; compound concentration 1 μM) of 37% and an inhibition at 1 µM [2] of 6%.

With `O=C(NCc1cn2cccnc2n1)c1ccc2nc(N3CCC(O)CC3)c(-c3ccc(F)cc3)nc2c1` [Compound I-282, 3-(4-Fluorophenyl)-2-(4-hydroxypiperidin-1-yl)-N-(imidazo[1,2-a]pyrimidin-2-ylmethyl)quinoxaline-6-carboxamide] the IC50 [1] was < 100 nM, the inhibition at 1 µM ([1]; compound concentration 1 μM) was 91% and the inhibition at 1.667 µM [2] was 96%.

For `O=C(NCCCn1ccnc1)c1ccc2nc(-c3ccccc3)c(N3CCn4ccnc4C3)nc2c1` [Compound I-283, 3-(5,6-dihydroimidazo[1,2-a]pyrazin-7(8H)-yl)-N-[3-(1H-imidazol-1-yl)propyl]-2-phenylquinoxaline-6-carboxamide], the IC50 [1] was 2000 to 10000 nM, the inhibition at 1 µM ([1]; compound concentration 1 μM) was 12% and the inhibition at 1 µM [2] was 100%.

`CC(C)Oc1c2c(nn1C)CCN(C(=O)c1ccc3nc(-c4ccc(F)cc4)c(-c4ccc(F)cc4)nc3c1)C2` [Compound I-284, [2,3-bis(4-fluorophenyl)quinoxalin-6-yl](3-isopropoxy-2-methyl-2,4,6,7-tetrahydro-5H-pyrazolo[4,3-c]pyridin-5-yl)methanone] was tested, and the IC50 [1] was 2000 to 10000 nM, the inhibition at 1 µM ([1]; compound concentration 1 μM) was 14% and the inhibition at 1 µM [2] was 98%.

`O=C(c1ccc2nc(-c3ccc(F)cc3)c(-c3ccc(F)cc3)nc2c1)N1CCc2[nH]nc(O)c2C1` [Compound I-285, [2,3-bis(4-fluorophenyl)quinoxalin-6-yl](3-hydroxy-1,4,6,7-tetrahydro-5H-pyrazolo[4,3-c]pyridin-5-yl)methanone] showed an IC50 [1] of 2000 to 10000 nM, an inhibition at 1 µM ([1]; compound concentration 1 μM) of 7% and an inhibition at 1 µM [2] of 97%.

Molecule `NCc1ccc(-c2nc3cc(C(=O)NCCc4cccnc4)ccc3nc2-c2ccccc2)cc1` [Compound I-286, 3-[4-(Aminomethyl)phenyl]-2-phenyl-N-[2-(pyridin-3-yl)ethyl]quinoxaline-6-carboxamide] has an IC50 [1] of 2000 to 10000 nM, an inhibition at 1 µM [1] of 13% and an inhibition at 1 µM [2] of 4%.

In the case of `O=C(NCCCc1ncc[nH]1)c1ccc2nc(N3CCS(=O)(=O)CC3)c(-c3ccc(F)cc3)nc2c1` [Compound I-287, 2-(1,1-dioxidothiomorpholin-4-yl)-3-(4-fluorophenyl)-N-[3-(1H-imidazol-2-yl)propyl]quinoxaline-6-carboxamide], the IC50 [1] is reported as < 100 nM, the inhibition at 1 µM ([1]; compound concentration 1 μM) is reported as 98% and the inhibition at 1.667 µM [2] is reported as 2%.

For `O=C(NCCCc1ncc[nH]1)c1ccc2nc(N3CC4(CCOCC4)C3)c(-c3ccc(F)cc3)nc2c1` [Compound I-288, 3-(4-fluorophenyl)-N-[3-(1H-imidazol-2-yl)propyl]-2-(7-oxa-2-azaspiro[3.5]non-2-yl)quinoxaline-6-carboxamide], the IC50 [1] was < 100 nM, the inhibition at 1 µM ([1]; compound concentration 1 μM) was > 99% and the inhibition at 1.667 µM [2] was 2%.

For `O=C(NCCCn1ccnc1)c1ccc2nc(N3CCS(=O)(=O)CC3)c(-c3ccccc3)nc2c1` [Compound I-289, 2-(1,1-dioxidothiomorpholin-4-yl)-N-[3-(1H-imidazol-1-yl)propyl]-3-phenylquinoxaline-6-carboxamide], the IC50 [1] was 1000 to 2000 nM, the inhibition at 1 µM ([1]; compound concentration 1 μM) was 45% and the inhibition at 1 µM [2] was -7%.

In the case of `CS(=O)(=O)Nc1cccc(-c2nc3ccc(C(=O)NCCCn4ccnc4)cc3nc2-c2ccccc2)c1` [Compound I-290, N-[3-(1H-imidazol-1-yl)propyl]-2-{3-[(methylsulfonyl)amino]phenyl}-3-phenylquinoxaline-6-carboxamide], the IC50 [1] is reported as 100 to 500 nM, the inhibition at 1 µM ([1]; compound concentration 1 μM) is reported as 81% and the inhibition at 1 µM [2] is reported as -8%.

`COc1cccc(-c2nc3cc(C(=O)NCCc4cccnc4)ccc3nc2N2CCC(N3CCOCC3)CC2)c1` [Compound I-291, 3-(3-Methoxyphenyl)-2-[4-(morpholin-4-yl)piperidin-1-yl]-N-[2-(pyridin-3-yl)ethyl]quinoxaline-6-carboxamide] was tested, and the IC50 [1] was < 100 nM, the inhibition at 1 µM ([1]; compound concentration 1 μM) was 98% and the inhibition at 1.667 µM [2] was 2%.

In the case of `Cn1cncc1CCNC(=O)c1ccc2nc(N3CCC(O)CC3)c(-c3ccc(F)cc3)nc2c1` [Compound I-292, 3-(4-fluorophenyl)-2-(4-hydroxypiperidin-1-yl)-N-[2-(1-methyl-1H-imidazol-5-yl)ethyl]quinoxaline-6-carboxamide], the IC50 [1] is reported as < 100 nM, the inhibition at 1 µM ([1]; compound concentration 1 μM) is reported as 90% and the inhibition at 1.667 µM [2] is reported as 2%.

In the case of `Cn1cc2c(n1)CN(c1nc3cc(C(=O)NCCCn4ccnc4)ccc3nc1-c1ccccc1)CC2` [Compound I-295, N-[3-(1H-imidazol-1-yl)propyl]-3-(2-methyl-2,4,5,7-tetrahydro-6H-pyrazolo[3,4-c]pyridin-6-yl)-2-phenylquinoxaline-6-carboxamide], the IC50 [1] is reported as 1000 to 2000 nM, the inhibition at 1 µM ([1]; compound concentration 1 μM) is reported as 49% and the inhibition at 1 µM [2] is reported as -6%.

With `O=C(NCCCn1ccnc1)c1ccc2nc(N3CCn4ccnc4C3)c(-c3ccccc3)nc2c1` [Compound I-296, 2-(5,6-dihydroimidazo[1,2-a]pyrazin-7(8H)-yl)-N-[3-(1H-imidazol-1-yl)propyl]-3-phenylquinoxaline-6-carboxamide] the IC50 [1] was 500 to 1000 nM, the inhibition at 1 µM ([1]; compound concentration 1 μM) was 67% and the inhibition at 1 µM [2] was -7%.

For `O=C(NCCCc1cn[nH]c1)c1ccc2nc(N3CCOCC3)c(-c3ccc(F)cc3)nc2c1` [Compound I-297, 3-(4-Fluorophenyl)-2-(morpholin-4-yl)-N-[3-(1H-pyrazol-4-yl)propyl]quinoxaline-6-carboxamide], the IC50 [1] was 100 to 500 nM, the inhibition at 1 µM ([1]; compound concentration 1 μM) was 88% and the inhibition at 1.667 µM [2] was 2%.

With `O=C(NCCCc1ncc[nH]1)c1ccc2nc(N3CCC(O)CC3)c(-c3ccc(Cl)cc3)nc2c1` [Compound I-298, 3-(4-chlorophenyl)-2-(4-hydroxypiperidin-1-yl)-N-[3-(1H-imidazol-2-yl)propyl]quinoxaline-6-carboxamide] the IC50 [1] was < 100 nM, the inhibition at 1 µM ([1]; compound concentration 1 μM) was > 99% and the inhibition at 1.667 µM [2] was 2%.

For `O=C(NCc1ccc2nccn2c1)c1ccc2nc(-c3ccc(F)cc3)c(-c3ccc(F)cc3)nc2c1` [Compound I-299, 2,3-bis(4-fluorophenyl)-N-(imidazo[1,2-a]pyridin-6-ylmethyl)quinoxaline-6-carboxamide], the IC50 [1] was 100 to 500 nM, the inhibition at 1 µM ([1]; compound concentration 1 μM) was 76% and the inhibition at 1.667 µM [2] was 2%.

In the case of `O=C(NCCCc1ncc[nH]1)c1ccc2nc(C3=CCOCC3)c(-c3cccs3)nc2c1` [Compound I-300, 2-(3,6-dihydro-2H-pyran-4-yl)-N-[3-(1H-imidazol-2-yl)propyl]-3-(2-thienyl)quinoxaline-6-carboxamide], the IC50 [1] is reported as < 100 nM, the inhibition at 1 µM ([1]; compound concentration 1 μM) is reported as > 99% and the inhibition at 1.667 µM [2] is reported as 32%.

In the case of `O=C(NCCCc1c[nH]cn1)c1ccc2nc(N3CCCCC3)c(-c3ccc(F)cc3)nc2c1` [Compound I-301, 3-(4-Fluorophenyl)-N-[3-(1H-imidazol-4-yl)propyl]-2-(piperidin-1-yl)quinoxaline-6-carboxamide], the IC50 [1] is reported as < 100 nM, the inhibition at 1 µM ([1]; compound concentration 1 μM) is reported as 99% and the inhibition at 1.667 µM [2] is reported as 2%.

Work on `O=C(NCCc1cnc2ccccn12)c1ccc2nc(-c3ccc(F)cc3)c(-c3ccc(F)cc3)nc2c1` [Compound I-302, 2,3-bis(4-fluorophenyl)-N-[2-(imidazo[1,2-a]pyridin-3-yl)ethyl]quinoxaline-6-carboxamide] yielded an IC50 [1] of 500 to 1000 nM, an inhibition at 1 µM ([1]; compound concentration 1 μM) of 63% and an inhibition at 1 µM [2] of 87%.

For `Cn1ccc2c1CN(C(=O)c1ccc3nc(-c4ccc(F)cc4)c(-c4ccc(F)cc4)nc3c1)CC2` [Compound I-303, [2,3-bis(4-fluorophenyl)quinoxalin-6-yl](1-methyl-1,4,5,7-tetrahydro-6H-pyrrolo[2,3-c]pyridin-6-yl)methanone], the IC50 [1] was 2000 to 10000 nM, the inhibition at 1 µM ([1]; compound concentration 1 μM) was 15% and the inhibition at 1 µM [2] was 95%.

`COc1nn(C)c2c1CN(C(=O)c1ccc3nc(-c4ccc(F)cc4)c(-c4ccc(F)cc4)nc3c1)CC2` [Compound I-304, [2,3-bis(4-fluorophenyl)quinoxalin-6-yl](3-methoxy-1-methyl-1,4,6,7-tetrahydro-5H-pyrazolo[4,3-c]pyridin-5-yl)methanone] was tested, and the IC50 [1] was 2000 to 10000 nM, the inhibition at 1 µM ([1]; compound concentration 1 μM) was 17% and the inhibition at 1 µM [2] was 92%.

In the case of `O=C(NCCCc1ncc[nH]1)c1ccc2nc(-n3ncc4ccccc43)c(-c3ccc(F)cc3)nc2c1` [Compound I-305, 3-(4-fluorophenyl)-N-[3-(1H-imidazol-2-yl)propyl]-2-(1H-indazol-1-yl)quinoxaline-6-carboxamide], the IC50 [1] is reported as < 100 nM, the inhibition at 1 µM ([1]; compound concentration 1 μM) is reported as 93% and the inhibition at 1.667 µM [2] is reported as 3%.

Work on `Cc1c(F)cc(-c2nc3cc(C(=O)NCCCc4ncc[nH]4)ccc3nc2-c2ccc(F)cc2)cc1F` [Compound I-306, 3-(3,5-difluoro-4-methylphenyl)-2-(4-fluorophenyl)-N-[3-(1H-imidazol-2-yl)propyl]quinoxaline-6-carboxamide] yielded an IC50 [1] of 500 to 1000 nM, an inhibition at 1 µM ([1]; compound concentration 1 μM) of 60% and an inhibition at 1.667 µM [2] of 3%.
